Earlier results in patent publication US20030176421A1, “PROKINETIC AGENTS FOR TREATING GASTRIC HYPOMOTILITY AND RELATED DISORDERS” (priority 1999, published 2003).
No end group written: not given here.

Experiments:
[1] = tested on: guinea-pig gastric muscle; conditions: without altering membrane potential significantly
[2] = tested on: canine colonic smooth muscle; conditions: in the presence of forskolin; concentration dependent
[3] = tested on: guinea pig ileum longitudinal muscle; conditions: potentiation at lower doses, inhibition at higher concentrations for theophylline; entire concentration range for the others
[4] = tested on: isolated canine internal anal sphincter
[5] = tested on: sensitized guinea-pig colon
[6] = tested on: cat lower oesophageal sphincter; conditions: for cAMP and cGMP levels after exposure: cat LOS; for relaxation of circular smooth muscle (LOS): cat
[7] = tested on: human lower oesophageal sphincter

In the case of `CC(C)Cn1c(=O)n(C)c(=O)c2[nH]cnc21` [IBMX, 3-isobutyl-1-methylxanthine], the “effect on slow waves” value [1] is given as “markedly reduce the frequency of slow waves”, the “relaxation of muscle strips” value (pig gastric fundus) is given as “induce concentration-dependent relaxations” and the “potency order for decrease in carbachol-induced contractile activity” value (shortened to “potency order for decrease”) [2] is given as “rolipram>Ro 20-1724>isobutyl methylxanthine>SB 94120>siguazodan>zaprinast”.
In the case of `[N]=O` [NO, nitric oxide], the “increase in cGMP content” value (pig gastric fundus) is listed as roughly 40 fold.
In the case of `CCCCOc1cc(CC2CNC(=O)N2)ccc1OC` (centres unmarked) [Ro 20-1724], the “potency order for decrease” value [2] is listed as “rolipram>Ro 20-1724>isobutyl methylxanthine>SB 94120>siguazodan>zaprinast”.
For `COc1cc(C(=O)OCCCN2CCCN(CCCOC(=O)c3cc(OC)c(OC)c(OC)c3)CC2)cc(OC)c1OC` [dilazep], the “effect on contractile response to transmural cholinergic nerve stimulation” value (from here on “effect on contractile response”) [3] is listed as “depression of the contractile responses”.
For `OCCN(CCO)c1nc(N2CCCCC2)c2nc(N(CCO)CCO)nc(N3CCCCC3)c2n1` [dipyridamole], the “effect on contractile response” value [3] is given as “depression of the contractile responses”.
For `C=C[C@@]1(C)CC(=O)[C@]2(O)[C@@]3(C)[C@@H](O)CCC(C)(C)[C@@H]3[C@H](O)[C@H](OC(C)=O)[C@@]2(C)O1` [forskolin], the “relaxation by intrinsic inhibitory neurons and associated cGMP elevation” value [4] is listed as “blocked” and the “relaxation of muscle strips” value (pig gastric fundus) is listed as “induce concentration-dependent relaxations”.
For `COc1ccc(CN(CCN(C)C)c2ccccn2)cc1` [mepyramine], the “initial rapid response of antigen-induced contraction” value [5] is listed as “blocked”.
For `O=S(=O)(Nc1cccc(OCc2ccc3ccccc3n2)c1)C(F)(F)F` [ritolukast], the “slower developing late contraction after antigen” value [5] is listed as “reduced”.
In the case of `COc1ccc(C2CNC(=O)C2)cc1OC1CCCC1` (centres unmarked) [rolipram], the “effect on slow waves” value [1] is given as “markedly reduce the frequency of slow waves” and the “potency order for decrease” value [2] is given as “rolipram>Ro 20-1724>isobutyl methylxanthine>SB 94120>siguazodan>zaprinast”.
In the case of `CN/C(=N\c1ccc(C2=NNC(=O)CC2C)cc1)NC#N` (centres unmarked) [siguazodan], the “potency order for decrease” value [2] is listed as “rolipram>Ro 20-1724>isobutyl methylxanthine>SB 94120>siguazodan>zaprinast”.
For `Cn1c(=O)c2[nH]cnc2n(C)c1=O` [theophylline], the “effect on contractile response” value [3] is listed as “biphasic effect on cholinergic transmission” and the “effect on slow waves” value [1] is listed as “markedly reduce the frequency of slow waves”.
In the case of `CCCOc1ccccc1-c1nc2[nH]nnc2c(=O)[nH]1` [zaprinast], the “relaxation of muscle strips” value (pig gastric fundus) is given as “induce concentration-dependent relaxations”, the “effect on NANC relaxations induced by electrical stimulation at intervals” value (pig gastric fundus; circular, but not longitudinal muscle strips) is given as “increases the duration of the NANC relaxations” and the “potency order for decrease” value [2] is given as “rolipram>Ro 20-1724>isobutyl methylxanthine>SB 94120>siguazodan>zaprinast”.
For helospectin, the “cAMP and cGMP levels after exposure” value [6] is listed as “both cAMP and cGMP levels were increased”.
For “pituitary adenylate cyclase activating peptide [PACAP]”, the “relaxation of circular smooth muscle (LOS)” value (shortened to “relaxation … (LOS)”) [6] is listed as “induced concentration-dependent relaxations”, the “cAMP and cGMP levels after exposure” value [6] is listed as “both cAMP and cGMP levels were increased” and the “relaxation … (LOS)” value [7] is listed as “induced concentration-dependent relaxations”.
In the case of “vasoactive intestinal peptide (HSDAVFTDNYTRLRKQMAVKKYLNSILN; ends and bridges not checked; UniProt P01282 125-152, looked up) [VIP]”, the “relaxation … (LOS)” value [6] is listed as “induced concentration-dependent relaxations”, the “cAMP and cGMP levels after exposure” value [6] is listed as “increase in cAMP levels only” and the “relaxation … (LOS)” value [7] is listed as “induced concentration-dependent relaxations”.
